Patent US10858357B2, “Water-soluble myosin 2 inhibitors for the treatment of neurological, neuropathic or psychiatric diseases” (PARIS SCIENCES ET LETTRES-QUARTIER LATIN, priority 2016, dated 2020)

Experiments:
HeLa cells = assay: HeLa wound healing (motility) assay; type: cell-based, human; details: 20 μM, after 24 h, uncoated glass; control 30.6±5.4%
Description: For wound healing assays, 200 μl of HeLa cells were plated on 35 mm borosilicate glass imaging dishes at 300,000 cells/ml concentrations and incubated for 24 hours. Prior to wounding, cells were incubated in 20 μM of neurelaxin-A for an hour. After one hour, scratches were made with pipette tips in monolayer cultures and the motility of cells for occupying the wound was monitored for 24 hours with a Foculus Digital Camera (IEEE1394). Analysis of cell motility was carried out by ImageJ, by measuring the distance between two lines fitted on the two sides of the approaching cell edges created by the pipette tips.
To test the effect of neurelaxin-A on the motility of HeLa cells on uncoated glass surface, wound-healing assays were carried out in the absence and in the presence of 20 μM concentrations of the inhibitor.
After 24 h, the percent of migration was measured for each sample. The control corresponds to a sample in the absence of inhibitor.

zebrafish heart muscle = assay: Zebrafish heart rate and amplitude of heart muscle contraction; type: in vivo, zebrafish (Danio rerio); details: 20 μM, within three hours, 6 dpf zebrafish
Description: For the fast escape response experiments, 6 dpf larvae were placed in 50 μl drops on a plastic plate. They were treated with 0, 2, 5, 10 or 20 μM of neurelaxin-A. To evoke C-start response, acoustic stimuli were applied according to the following protocol: 10 taps were carried out with 1 minute intervals every hour for 4 hours. The force of tapping was standardized. Images were recorded with Ximea Camera (MQ003MG-CM) at 500 fps for 2 s. Data were analyzed by Flote software version 2.1 and maximal angular velocity parameters of C-start reflex were quantified. For the experiments investigating the effect of the inhibitor on the heart muscle of zebrafish, 6 dpf larvae were embedded in 1% agarose and kept in E3 in the presence of 20 μM neurelaxin-A. Videos were taken by a camera at 15.1 fps before and after inhibitor treatment every hour for 3 hours.
Transgenic Tg(−8.0cldnb:lynEGFP)^zf106 (cldnb:gfp) (Haas, P. & Gilmour, D., Developmental Cell 10, 2006, pp 673-680) zebrafish (Danio rerio) were maintained in the animal facility of Eötvös Loránd University. For the experiments investigating the skeletal and heart muscle of zebrafish, 6 dpf embryos were used. […]
Heart beating and the amplitude of heart muscle contraction were monitored before and after the addition of 20 μM of neurelaxin-A to the zebrafish, imaging the same embryos every hour for three hours.

[1] = test system: HeLa Kyoto H2B-mCherry eGFP-α-tubulin cells; assay: Inhibition of cytokinesis / cell growth of HeLa cells; type: cell-based, human; details: 25 μM, 3rd day
Description: For cell growth assays, HeLa Kyoto H2B-mCherry eGFP-α-tubulin cells were grown on an eight-chambered Lab-Tek borosilicate cover glass system, with the initial cell concentration of 100,000 cells/ml. As soon as the cells attached to the surface, they were treated with 0, 2, 5, 10, 25 or 50 μM concentrations of neurelaxin-A. Cells were grown for three days in the presence of the indicated inhibitor concentrations and cell numbers were quantified each day. The final vol/vol % of DMSO in all experiments was 0.1. Data analysis was carried out by Fiji software. On the third day of the experiment, multinuclear cells were visualized by using a Zeiss LSM 710 with a Plan Apo 20×/0.8 objective.
Another important phenotypic effect of non-muscle myosin 2 inhibition is the blocking of cytokinesis and consequently, the increasing number of multinucleated cells and the relatively low total cell number in human cancer cell cultures (Straight et al. Science, 2003, 299 (5613), pp 1743-1747). Therefore, the ratio of multinuclear cells and total cell number of HeLa cells was measured in time at different concentrations of neurelaxin-A (FIGS. 3F and 3G).
Cells incubated in different concentrations of the inhibitors were counted on each day for three days. […] In parallel with this phenomenon, the ratio of multinuclear cells increased with increasing inhibitor concentration.

spinal cord injury = assay: Spinal cord complete section, BBB locomotor scoring; type: in vivo, rat; details: 10 mM in 10% DMSO/90% aCSF at injury site; from day 7; non-treated stays under 3
Description: In this experiment, a complete section of the spinal cord on animals was carried out. Then, neurelaxin A administration was carried out at the injury site, 5-10 min after the injury was performed. This neurelaxin-A administration was carried out via a diluted solution of 10 mM of neurelaxin A in a 10% DMSO/90% aCSF (artificial cerebrospinal fluid) solution, leading to an orange bright precipitate that is slowly soluble into the injury site. Finally, a BBB (Basso, Beattie and Bresnahan) analysis is performed in order to study the sequence of functional locomotor recovery patterns. The scale (0-21) represents sequential recovery stages and categorizes combinations of rat joint movement, hindlimb movements, stepping, forelimb and hind limbcoordination, trunk position and stability, paw placement and tail position.
According to this test, any drug treatment which may increase the BBB scores may be considered neuroprotective in animal models.
In this experiment, treated animals (n=3) were undistinguishable from non-treated animals (n=3). The BBB scoring scale ranges from 0 to 21.

[2] = test system: human melanoma (M2) cells; assay: Inhibition of blebbing of M2 cells (blebbing index); type: cell-based
Description: For blebbing index determination, M2 cells were incubated for 30 minutes in PBS in every case prior to the addition of inhibitors, in order to initiate extensive blebbing. Blebbing of the cells was monitored before as well as after inhibitor addition to the cells. DMSO concentration was 0.1 vol/vol % in all experiments. Blebbing index was calculated by summing the initiated blebs in a 5-minute interval (starting at the indicated time points) on a given standard area 17 (whole cells with similar size, diameter=12±1 μm) and normalizing it to the blebbing index prior to inhibitor treatment.
As myosin 2 inhibition blocks blebbing of M2 cells (Straight et al., Science, 2003, 299 (5613), pp 1743-7), the blebbing indices ((Charras, G. T., Yarrow, J. C., Horton, M. A., Mahadevan, L. & Mitchison, T. J. Non-equilibration of hydrostatic pressure in blebbing cells. Nature 435, 365-369, doi:10.1038/nature03550 (2005))) of M2 cells were measured in time, after incubating the cells in neurelaxin-A at different concentrations (FIG. 3C).

neurons = assay: Oxidative stress resistance (H2O2) of neurons; type: cell-based; details: 30 μM H2O2
Description: Hydrogen Peroxide (H2O2) is used for generating reactive oxygen species and consequently, leading to oxidative stress and neuronal loss.
In this experiment, the neurons were first incubated with 30 μM of H2O2 or not (witness sample). Then, the neurons were treated with DMSO solutions with or without Neurelaxin-A.

Cc1ccc2c(c1)C(=O)C1(O)CCN(c3ccc(N)cc3)C1=N2 (stereo not shown) [Neurelaxin-A, 1-(4-aminophenyl)-3a-hydroxy-6-methyl-3,3a-dihydro-1H-pyrrolo[2,3-b]quinolin-4(2H)-one]
relative migration of HeLa cells (100% = total diameter of the wound) (HeLa cells): 62.6±3.6%
amplitude of heart muscle contraction (zebrafish heart muscle): dropped drastically
effect on cytokinesis / cell number [1]: completely inhibited cytokinesis
BBB scoring (spinal cord injury): significant increasing of BBB scoring
τ, time constant of suppression of blebbing index ([2]; 5 μM): 25.0 ± 4.3 min
effect on blebbing indices ([2]; 5 μM, within an hour): significant decrease
time within which blebbing completely stopped ([2]; 10 μM): 40 to 60 min
τ, time constant of suppression of blebbing index ([2]; 10 μM): 16.8 ± 1.6 min
time within which blebbing completely stopped ([2]; 25 μM): > 20 min
τ, time constant of suppression of blebbing index ([2]; 25 μM): 9.9 ± 0.3 min
time within which blebbing completely stopped ([2]; 50 μM): > 20 min
τ, time constant of suppression of blebbing index ([2]; 50 μM): 7.8 ± 0.3 min
neuronal survival and axon maintenance under oxidative stress (neurons): increased
